Values quoted from earlier work in patent EP2382994A1, “Ligand targeted nanocapsules for the delivery of RNAi and other agents” (Cattaneo, Maurizio Victor, priority 2010, dated 2011).

Columns and labels:
[1] = system: advanced stage melanoma
[2] = systemic delivery of 20 mg DOX; Tang et al. 2007

In the case of `COc1cccc2c1C(=O)c1c(O)c3c(c(O)c1C2=O)C[C@@](O)(C(=O)CO)C[C@@H]3O[C@H]1C[C@H](N)[C@H](O)[C@H](C)O1` [DOX, Doxorubicin], the “clinical efficacy in melanoma” value [1] is given as “essentially ineffective” and the “lethal toxicity, time of treatment” value [2] is given as ≤ 8 days.
